Test results from patent US20230126447A1, “OCULAR DRUG DEPOT FOR COMPLEMENT-MEDIATED DISORDERS” (priority 2020, published 2023).
Where “and” joins values, the source holds several entries; their conditions need not be identical. Equal entries are not always repeated. Where two headings read alike, the source gives them in different places.

Experiment: Ocular tissue and plasma pharmacokinetics, 50 mg/kg BID oral, Dutch Belted rabbits (Example 4/5)
Assay type: in vivo
Conditions: for concentration at 96 h / concentration at 168 h / concentration at 0 h / concentration at 1 h / concentration at 6 h / concentration at 24 h / concentration at 240 h: 50 mg/kg
Experimental: Study design, including group designation and dose levels, are outlined in Table 15. […] Two Dutch Belted rabbits received vehicle only oral gavage doses for tolerability assessment. […] The dose volume was 5 mL/kg/dose for all groups. Safety was assessed with toxicological and ophthalmic examinations, including slit lamp biomicroscopy, indirect ophthalmoscopy, rebound tonometry, and ultrasonic corneal pachymetry.
For the pharmacokinetic determination, a single blood sample was taken from each rabbit from Groups 1 and 4 at one hour post-dose on Day 15, Group 2 at one hour post-dose on Day 8, and Group 3 at pre-dose, 1, 6, 24, 96, 168, and 240 hours post-dose on Day 15, with the eyes collected at the same time as blood sampling. Plasma, vitreous humor (VH), retina, choroid-retina pigmented epithelium (Choroid-RPE), optic nerve (ON), and iris-ciliary body (I-CB) were analyzed by LC-MS/MS to quantify test article concentrations. The lower limit of quantitation (LLOQ) in plasma and vitreous humor was 1.0 ng/mL. The LLOQ was 6.0 ng/g in retina, choroid-RPE, and I-CB and the optic nerve LLOQ was 15 ng/g, assuming tissue density of 1 g/mL where relevant. […]

[1] = male, Dutch Belted, po, Optic Nerve, DB rabbit, 50 mg/kg BID, Day 15
[2] = male, Dutch Belted, po, Plasma, DB rabbit, 50 mg/kg BID, Day 15
[3] = male, Dutch Belted, po, Retina, DB rabbit, 50 mg/kg BID, Day 15
[4] = male, Dutch Belted, po, Vitreous Humor, DB rabbit, 50 mg/kg BID, Day 15

Work on `CC(=O)c1nn(CC(=O)N2C[C@H](F)C[C@H]2C(=O)Nc2cccc(Br)n2)c2ccc(-c3cnc(C)nc3)cc12` [Compound 1, (2S,4R)-1-(2-(3-Acetyl-5-(2-methylpyrimidin-5-yl)-1H-indazol-1-yl)acetyl)-N-(6-bromopyridin-2-yl)-4-fluoropyrrolidine-2-carboxamide] yielded a Cmax [1] of 1550 ng/g, an MRT last [1] of 4.79 h and a Tmax [1] of 1 h. It also gave a half-life [1] of 7.82 h, an AUC(0-inf) [2] of 10100 ng·h/mL and a Cmax [2] of 2900 ng/mL. The MRT last [2] was 4.73 h, the Tmax [2] was 1 h and the half-life [2] was 5.98 h. For the same molecule, the AUC(0-t) (male, Dutch Belted, po, Plasma, DB rabbit, 50 mg/kg BID, Day 15, read-out: AUC0-t) was 9790 ng·h/mL, the Cmax [3] was 2120 ng/g and the MRT last [3] was 53.2 h. For the same molecule, the Tmax [3] was 1 h, the half-life [3] was 96.1 h and the Cmax [4] was 49.2 ng/g and 49.2 ng/mL. The MRT last [4] was 7.27 h, the Tmax [4] was 1 h and the half-life [4] was 5.44 h. It also gave an AUC(0-t) (male, Dutch Belted, po, Vitreous Humor, DB rabbit, 50 mg/kg BID, Day 15, read-out: AUClast) of 419 ng·h/mL, a concentration at 96 h (male, Dutch Belted, rabbit, choroid-RPE, oral, DB rabbits, Day 15, 50 mg/kg BID, 96 hr, read-out: Mean Choroid-RPE Concentration) of 873 ng/g and a concentration at 168 h (male, Dutch Belted, rabbit, choroid-RPE, oral, DB rabbits, Day 15, 50 mg/kg BID, 168 hr, read-out: Mean Choroid-RPE Concentration) of 645 ng/g. It also gave a concentration at 0 h (male, Dutch Belted, rabbit, choroid-RPE, po, DB rabbit, 50 mg/kg BID oral, Day 15, 0 h, read-out: Mean Choroid-RPE concentration) of 3920 ng/g, a concentration at 1 h (male, Dutch Belted, rabbit, choroid-RPE, po, DB rabbit, 50 mg/kg BID oral, Day 15, 1 h, read-out: Mean Choroid-RPE concentration) of 8020 ng/g and a concentration at 6 h (male, Dutch Belted, rabbit, choroid-RPE, po, DB rabbit, 50 mg/kg BID oral, Day 15, 6 h, read-out: Mean Choroid-RPE concentration) of 4370 ng/g. For the same molecule, the concentration at 24 h (male, Dutch Belted, rabbit, choroid-RPE, po, DB rabbit, 50 mg/kg BID oral, Day 15, 24 h, read-out: Mean Choroid-RPE concentration) was 2100 ng/g, the concentration at 240 h (male, Dutch Belted, rabbit, choroid-RPE, po, DB rabbit, 50 mg/kg BID oral, Day 15, 240 h, read-out: Mean Choroid-RPE concentration) was 194 ng/g and the concentration at 0 h (male, Dutch Belted, rabbit, iris-ciliary body, po, DB rabbit, 50 mg/kg BID oral, Day 15, 0 h, read-out: Mean Iris-Ciliary Body concentration) was 5080 ng/g. It also gave a concentration at 1 h (male, Dutch Belted, rabbit, iris-ciliary body, po, DB rabbit, 50 mg/kg BID oral, Day 15, 1 h, read-out: Mean Iris-Ciliary Body concentration) of 11500 ng/g, a concentration at 6 h (male, Dutch Belted, rabbit, iris-ciliary body, po, DB rabbit, 50 mg/kg BID oral, Day 15, 6 h, read-out: Mean Iris-Ciliary Body concentration) of 8820 ng/g and a concentration at 24 h (male, Dutch Belted, rabbit, iris-ciliary body, po, DB rabbit, 50 mg/kg BID oral, Day 15, 24 h, read-out: Mean Iris-Ciliary Body concentration) of 5560 ng/g. The concentration at 96 h (male, Dutch Belted, rabbit, iris-ciliary body, po, DB rabbit, 50 mg/kg BID oral, Day 15, 96 h, read-out: Mean Iris-Ciliary Body concentration) was 2840 ng/g, the concentration at 168 h (male, Dutch Belted, rabbit, iris-ciliary body, po, DB rabbit, 50 mg/kg BID oral, Day 15, 168 h, read-out: Mean Iris-Ciliary Body concentration) was 2290 ng/g and the concentration at 240 h (male, Dutch Belted, rabbit, iris-ciliary body, po, DB rabbit, 50 mg/kg BID oral, Day 15, 240 h, read-out: Mean Iris-Ciliary Body concentration) was 1620 ng/g. The concentration at 0 h (male, Dutch Belted, rabbit, optic nerve, po, DB rabbit, 50 mg/kg BID oral, Day 15, 0 h, read-out: Optic Nerve concentration) was 45.3 ng/g, the concentration at 1 h (male, Dutch Belted, rabbit, optic nerve, po, DB rabbit, 50 mg/kg BID oral, Day 15, 1 h, read-out: Optic Nerve concentration) was 1550 ng/g and the concentration at 6 h (male, Dutch Belted, rabbit, optic nerve, po, DB rabbit, 50 mg/kg BID oral, Day 15, 6 h, read-out: Optic Nerve concentration) was 133 ng/g. The concentration at 24 h (male, Dutch Belted, rabbit, optic nerve, po, DB rabbit, 50 mg/kg BID oral, Day 15, 24 h, read-out: Optic Nerve concentration) was 27 ng/g, the concentration at 0 h (male, Dutch Belted, rabbit, plasma, po, DB rabbit, 50 mg/kg BID oral, Day 15, 0 h, read-out: Mean plasma concentration) was 104 ng/mL and the concentration at 1 h (male, Dutch Belted, rabbit, plasma, po, DB rabbit, 50 mg/kg BID oral, Day 15, 1 h, read-out: Mean plasma concentration) was 2900 ng/mL. For the same molecule, the concentration at 6 h (male, Dutch Belted, rabbit, plasma, po, DB rabbit, 50 mg/kg BID oral, Day 15, 6 h, read-out: Mean plasma concentration) was 320 ng/mL, the concentration at 24 h (male, Dutch Belted, rabbit, plasma, po, DB rabbit, 50 mg/kg BID oral, Day 15, 24 h, read-out: Mean plasma concentration) was 39.9 ng/mL and the concentration at 0 h (male, Dutch Belted, rabbit, retina, oral, DB rabbits, Day 15, 50 mg/kg BID, 0 hr, read-out: Mean Retina Concentration) was 159 ng/g. It also gave a concentration at 1 h (male, Dutch Belted, rabbit, retina, oral, DB rabbits, Day 15, 50 mg/kg BID, 1 hr, read-out: Mean Retina Concentration) of 2120 ng/g, a concentration at 6 h (male, Dutch Belted, rabbit, retina, oral, DB rabbits, Day 15, 50 mg/kg BID, 6 hr, read-out: Mean Retina Concentration) of 725 ng/g and a concentration at 24 h (male, Dutch Belted, rabbit, retina, oral, DB rabbits, Day 15, 50 mg/kg BID, 24 hr, read-out: Mean Retina Concentration) of 265 ng/g. For the same molecule, the concentration at 96 h (male, Dutch Belted, rabbit, retina, oral, DB rabbits, Day 15, 50 mg/kg BID, 96 hr, read-out: Mean Retina Concentration) was 32.3 ng/g, the concentration at 168 h (male, Dutch Belted, rabbit, retina, oral, DB rabbits, Day 15, 50 mg/kg BID, 168 hr, read-out: Mean Retina Concentration) was 54.9 ng/g and the concentration at 240 h (male, Dutch Belted, rabbit, retina, oral, DB rabbits, Day 15, 50 mg/kg BID, 240 hr, read-out: Mean Retina Concentration) was 39.4 ng/g. For the same molecule, the concentration at 0 h (male, Dutch Belted, rabbit, retina, po, DB rabbit, 50 mg/kg BID oral, Day 15, 0 h, read-out: Mean retina concentration) was 159 ng/g, the concentration at 1 h (male, Dutch Belted, rabbit, retina, po, DB rabbit, 50 mg/kg BID oral, Day 15, 1 h, read-out: Mean retina concentration) was 2120 ng/g and the concentration at 6 h (male, Dutch Belted, rabbit, retina, po, DB rabbit, 50 mg/kg BID oral, Day 15, 6 h, read-out: Mean retina concentration) was 725 ng/g. For the same molecule, the concentration at 24 h (male, Dutch Belted, rabbit, retina, po, DB rabbit, 50 mg/kg BID oral, Day 15, 24 h, read-out: Mean retina concentration) was 265 ng/g, the concentration at 96 h (male, Dutch Belted, rabbit, retina, po, DB rabbit, 50 mg/kg BID oral, Day 15, 96 h, read-out: Mean retina concentration) was 32.3 ng/g and the concentration at 168 h (male, Dutch Belted, rabbit, retina, po, DB rabbit, 50 mg/kg BID oral, Day 15, 168 h, read-out: Mean retina concentration) was 54.9 ng/g. The concentration at 240 h (male, Dutch Belted, rabbit, retina, po, DB rabbit, 50 mg/kg BID oral, Day 15, 240 h, read-out: Mean retina concentration) was 39.3 ng/g, the concentration at 0 h (male, Dutch Belted, rabbit, vitreous humor, po, DB rabbit, 50 mg/kg BID oral, Day 15, 0 h, read-out: Vitreous concentration) was 2.91 ng/g and the concentration at 1 h (male, Dutch Belted, rabbit, vitreous humor, po, DB rabbit, 50 mg/kg BID oral, Day 15, 1 h, read-out: Vitreous concentration) was 49.2 ng/g. For the same molecule, the concentration at 6 h (male, Dutch Belted, rabbit, vitreous humor, po, DB rabbit, 50 mg/kg BID oral, Day 15, 6 h, read-out: Vitreous concentration) was 28.7 ng/g, the concentration at 24 h (male, Dutch Belted, rabbit, vitreous humor, po, DB rabbit, 50 mg/kg BID oral, Day 15, 24 h, read-out: Vitreous concentration) was 2.9 ng/g and the Tlast (plasma, DB rabbit, 50 mg/kg BID, Day 15) was 24 h. The “C-RPE drug concentration at least 10 days following the last oral administration” value (rabbit, 50 mg/kg BID) was 196 ng/mL.
